Data published in ChEMBL document CHEMBL1201862, “PubChem BioAssay data set” (2004).
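Exposure lasted 48 hours, with cells grown in 96-well plates and compounds tested at five concentrations. GI50 marks 50% less growth.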 The source made the active and inactive calls. Cut-off read from the data, not from the text of the source: active = GI50 up to about 1.1 µM and inactive = higher.

Tests used:
Test in all cases: NCI tumour cell line growth inhibition, 48 h
SK-MEL-5 = tested on: SK-MEL-5
KM12 = tested on: KM12
SF-295 = tested on: SF-295
OVCAR-3 = tested on: OVCAR-3
OVCAR-8 = tested on: OVCAR-8
SR = tested on: SR
HCC 2998 = tested on: HCC 2998
UACC-62 = tested on: UACC-62
HOP-92 = tested on: HOP-92
HCT-116 = tested on: HCT-116
SW-620 = tested on: SW-620
HL-60 = tested on: HL-60
CAKI-1 = tested on: CAKI-1
M14 = tested on: M14
RXF 393 = tested on: RXF 393
DU-145 = tested on: DU-145
PC-3 = tested on: PC-3
MDA-MB-231 = tested on: MDA-MB-231
SK-MEL-2 = tested on: SK-MEL-2
NCI-H23 = tested on: NCI-H23

Measured: GI50

OC1/C(=C/c2ccccc2)CNC/C1=C\c1ccccc1 (stereo not drawn)
inactive: SK-MEL-5 > 100 µM | KM12 > 100 µM | SF-295 > 100 µM | OVCAR-3 > 100 µM | OVCAR-8 > 100 µM | SR > 100 µM | HCC 2998 > 100 µM | UACC-62 > 100 µM | HOP-92 96.8 µM | HCT-116 > 100 µM | SW-620 > 100 µM | HL-60 92.7 µM | CAKI-1 43.1 µM | M14 > 100 µM | RXF 393 > 100 µM

O=c1[nH]ncc2[nH]c3c4ccccc4ccc3c12
inactive: SK-MEL-5 28.1 µM | KM12 37.4 µM | SF-295 22.6 µM | OVCAR-3 29.6 µM | OVCAR-8 51.3 µM | SR 31.3 µM | DU-145 > 100 µM | HCC 2998 60.1 µM | HOP-92 14 µM | HCT-116 42.2 µM | PC-3 39.2 µM | SW-620 41.3 µM | HL-60 80.7 µM | CAKI-1 48.2 µM | M14 94.6 µM | RXF 393 46.2 µM

CC(/C=C/C(O)=C1/C(=O)CNC1=O)=C\[C@@H](C)[C@H]1O[C@@]2(C)O[C@H](C(=O)[C@@H]3O[C@@]32C)[C@@H]1C
inactive: SK-MEL-5 17.5 µM | KM12 20 µM | MDA-MB-231 18.4 µM | OVCAR-3 18.9 µM | OVCAR-8 20.2 µM | SK-MEL-2 22.7 µM | DU-145 18.9 µM | UACC-62 16.7 µM | HCT-116 18.9 µM | NCI-H23 23.5 µM | PC-3 14 µM | SW-620 29.8 µM | HL-60 11.7 µM | CAKI-1 19.4 µM | M14 31.8 µM | RXF 393 1.14 µM

Cc1ccc([S+]([O-])c2cccs2)cc1 (stereo not drawn)
inactive: KM12 > 100 µM | SF-295 > 100 µM | OVCAR-3 > 100 µM | OVCAR-8 > 100 µM | SR > 100 µM | DU-145 > 100 µM | HOP-92 > 100 µM | HCT-116 > 100 µM | NCI-H23 > 100 µM | PC-3 > 100 µM | SW-620 > 100 µM | HL-60 > 100 µM | M14 > 100 µM | RXF 393 > 100 µM

O=C(c1cccs1)N1CCCN(C(=O)c2cccs2)C1=S
inactive: SK-MEL-5 > 100 µM | KM12 > 100 µM | SF-295 > 100 µM | MDA-MB-231 > 100 µM | OVCAR-3 > 100 µM | OVCAR-8 > 100 µM | SK-MEL-2 84.7 µM | DU-145 > 100 µM | UACC-62 > 100 µM | HCT-116 > 100 µM | NCI-H23 > 100 µM | PC-3 > 100 µM | SW-620 > 100 µM | HL-60 > 100 µM | CAKI-1 > 100 µM | M14 > 100 µM | RXF 393 36.1 µM

C#CC1(O)c2ccccc2C(=O)c2ccccc21
inactive: KM12 > 100 µM | SF-295 > 100 µM | OVCAR-8 > 100 µM | SR > 100 µM | SK-MEL-2 > 100 µM | HCC 2998 > 100 µM | HOP-92 21.6 µM | HCT-116 > 100 µM | NCI-H23 > 100 µM | SW-620 > 100 µM | HL-60 > 100 µM | CAKI-1 > 100 µM | RXF 393 > 100 µM

CC(C)C(=O)Nc1nc2c(ncn2C2OC(CO)C(O)C2O)c(=O)[nH]1 (stereo not drawn)
inactive: SK-MEL-5 > 100 µM | KM12 > 100 µM | SF-295 > 100 µM | OVCAR-3 > 100 µM | OVCAR-8 > 100 µM | SR > 100 µM | SK-MEL-2 > 100 µM | HCC 2998 > 100 µM | UACC-62 > 100 µM | HOP-92 > 100 µM | HCT-116 > 100 µM | NCI-H23 > 100 µM | SW-620 > 100 µM | HL-60 > 100 µM | CAKI-1 > 100 µM | M14 > 100 µM | RXF 393 > 100 µM

CCc1cccc(C)c1NC(=O)C(=O)Cc1nc2ccccc2o1
inactive: SF-295 > 100 µM | OVCAR-3 > 100 µM | OVCAR-8 > 100 µM | SR > 100 µM | SK-MEL-2 > 100 µM | HCC 2998 > 100 µM | UACC-62 > 100 µM | HOP-92 > 100 µM | HCT-116 > 100 µM | NCI-H23 > 100 µM | SW-620 > 100 µM | HL-60 > 100 µM | CAKI-1 > 100 µM | M14 > 100 µM | RXF 393 > 100 µM

O=C1CN(c2cccc(C(F)(F)F)c2)C(=O)CN1CCN1CC(=O)N(c2cccc(C(F)(F)F)c2)CC1=O
inactive: SK-MEL-5 > 100 µM | KM12 > 100 µM | SF-295 > 100 µM | MDA-MB-231 > 100 µM | OVCAR-8 > 100 µM | SR > 100 µM | HCC 2998 > 100 µM | HCT-116 > 100 µM | PC-3 > 100 µM | SW-620 > 100 µM | HL-60 > 100 µM | M14 > 100 µM

CN(C)c1ccc2nc3c(ccc4ccccc43)[o+]c2c1
inactive: SK-MEL-5 13.4 µM | KM12 15 µM | SF-295 15.5 µM | OVCAR-3 3.89 µM | OVCAR-8 12.4 µM | SR 3.42 µM | SK-MEL-2 19.6 µM | HCC 2998 17.5 µM | UACC-62 11.5 µM | HOP-92 18.3 µM | HCT-116 5.97 µM | NCI-H23 14 µM | SW-620 3.2 µM | HL-60 1.95 µM | CAKI-1 15.5 µM | M14 11 µM | RXF 393 13.3 µM

CC(C)C(=O)[C@@]1(C)SC[C@H]2CCN=C21
inactive: SK-MEL-5 > 100 µM | KM12 > 100 µM | SF-295 > 100 µM | OVCAR-3 > 100 µM | OVCAR-8 > 100 µM | SR 56.8 µM | DU-145 > 100 µM | HCC 2998 > 100 µM | UACC-62 41.4 µM | HOP-92 16.9 µM | HCT-116 > 100 µM | NCI-H23 > 100 µM | SW-620 > 100 µM | HL-60 > 100 µM | CAKI-1 17 µM | M14 71 µM | RXF 393 3.52 µM

Nc1nc2ncc(SCc3ccc(C(=O)NC(CCC(=O)O)C(=O)O)cc3)cc2c(=O)[nH]1 (stereo not drawn)
inactive: SK-MEL-5 > 100 µM | KM12 > 100 µM | SF-295 > 100 µM | OVCAR-3 > 100 µM | OVCAR-8 > 100 µM | SR > 100 µM | SK-MEL-2 > 100 µM | DU-145 > 100 µM | HCC 2998 > 100 µM | UACC-62 > 100 µM | HOP-92 > 100 µM | HCT-116 > 100 µM | NCI-H23 > 100 µM | PC-3 > 100 µM | SW-620 > 100 µM | HL-60 > 100 µM | CAKI-1 > 100 µM | M14 > 100 µM

NC(=O)N1N=C2c3ccccc3OC[C@H]2[C@@H]1c1ccccc1
inactive: SK-MEL-5 1.91 µM | KM12 9.31 µM | SF-295 4.21 µM | OVCAR-3 20.9 µM | OVCAR-8 5.07 µM | SR 6.31 µM | SK-MEL-2 27.6 µM | HCC 2998 10.7 µM | UACC-62 3.78 µM | HOP-92 13.8 µM | HCT-116 5.6 µM | NCI-H23 22.6 µM | SW-620 4.99 µM | HL-60 22.6 µM | CAKI-1 35.6 µM | M14 2.07 µM | RXF 393 2.72 µM

C/C(=C\C(=O)Nc1ccc2[nH]nnc2c1)Nc1ccc2[nH]nnc2c1
inactive: SK-MEL-5 > 100 µM | KM12 > 100 µM | SF-295 > 100 µM | OVCAR-3 > 100 µM | OVCAR-8 > 100 µM | SR > 100 µM | HCC 2998 > 100 µM | UACC-62 > 100 µM | HOP-92 > 100 µM | HCT-116 > 100 µM | NCI-H23 > 100 µM | SW-620 > 100 µM | HL-60 > 100 µM | CAKI-1 > 100 µM | M14 > 100 µM | RXF 393 > 100 µM

O=C1C2C(C(=O)N1O)N(Cc1ccccc1)C(=O)N2Cc1ccccc1 (stereo not drawn)
inactive: SK-MEL-5 > 100 µM | KM12 > 100 µM | SF-295 > 100 µM | OVCAR-3 > 100 µM | OVCAR-8 > 100 µM | SR > 100 µM | HCC 2998 > 100 µM | UACC-62 > 100 µM | HOP-92 > 100 µM | HCT-116 > 100 µM | NCI-H23 > 100 µM | SW-620 > 100 µM | HL-60 > 100 µM | CAKI-1 > 100 µM | M14 > 100 µM | RXF 393 > 100 µM

CC(C)(O)[C@@H]1CCC(C)([C@H]2[C@@H](O)CC3(C)C4CC(OC5OC(CO)C(O)C(O)C5O)C5C(C)(C)[C@@H](OC6OCC(O)C(O)C6O)CC[C@@]56C[C@@]46CC[C@]23C)O1 (stereo partly drawn)
inactive: SK-MEL-5 > 100 µM | KM12 > 100 µM | SF-295 > 100 µM | OVCAR-3 > 100 µM | OVCAR-8 > 100 µM | SR > 100 µM | SK-MEL-2 > 100 µM | HCC 2998 > 100 µM | UACC-62 > 100 µM | HOP-92 > 100 µM | HCT-116 > 100 µM | NCI-H23 > 100 µM | SW-620 > 100 µM | HL-60 > 100 µM | M14 > 100 µM | RXF 393 > 100 µM

O=C(OCc1ccccc1)N1CCN(C(=O)OCc2ccccc2)CCN(C(=O)OCc2ccccc2)CCN(C(=O)OCc2ccccc2)CCN(C(=O)OCc2ccccc2)CC1
inactive: SK-MEL-5 18.4 µM | KM12 > 100 µM | SF-295 > 100 µM | MDA-MB-231 39.5 µM | OVCAR-3 > 100 µM | OVCAR-8 > 100 µM | SK-MEL-2 > 100 µM | DU-145 > 100 µM | HCC 2998 > 100 µM | UACC-62 > 100 µM | HOP-92 70.5 µM | HCT-116 > 100 µM | PC-3 > 100 µM | SW-620 > 100 µM | CAKI-1 > 100 µM | M14 35.3 µM
